Read-outs that look alike come from different tables or passages of the source.
How the values were obtained:
[1] = system: RhoA/B in H-1975 human lung cancer tumors; assay: RhoA/B membrane staining of tumor tissue, H-1975 mouse model; format: in vivo, mice; conditions: 5 mg/kg
Protocol: RhoA/RhoB membrane staining of tumor tissue of a H-1975 human lung cancer cell mouse model is performed as described below, and the tumor-bearing mice are treated with a THSD (here an ALSD of formula FIId, “DZ2a”, compound 7) in comparison to the corresponding unconjugated dye (“DZ1”) and to Gefinitib (an EGFR inhibitor drug used for treatment of certain breast, lung and other cancers).
H-1975 cells, a cell model for human lung cancer that is resistant to Gefitinib (an EGFR inhibitor drug used for treatment of certain breast, lung and other cancers) are cultured as described above and injected subcutaneously into mice to develop tumors. The mice and the tumors that are formed are systemically exposed to an ALSD (here of formula FIId, “DZ2a”, compound 7) by intravenous injection. The tumor-bearing mice are treated with either Gefitinib (20 mg/kg), or with an ALSD (here of formula FIId, “DZ2a”, compound 7, 5 mg/kg), an unconjugated dye of formula III (“DZ1”, 5 mg/kg) or a combination of the ALSD with Gefitinib.
For immunostaining of tumor tissue, the animals are sacrificed by prescribed and approved euthanasia techniques. Tumor tissue (maximum thickness 3 mm) is sliced, formalin fixated, embedded into paraffin blocks which are sectioned and processed into paraffin section slides. […]

[2] = system: 22RV1 prostate cancer cells; assay: Cell viability by trypan blue counting, 22RV1; format: cell-based, human; conditions: read-out: IC50 for reduction of cell viability/growth inhibition
Protocol: Cell culture: In the following examples, unless otherwise specified, all cell lines are purchased from American Type Culture Collection and cultured in American Type Culture Collection (ATCC)-recommended media, with fetal bovine serum (FBS) to a final concentration of 10% and 1×penicillin/streptomycin at 37° C. with 5% CO2 in a cell culture incubator, unless otherwise specified. Unless otherwise specified, culture is 2D. Where culture is 3D, low attachment plates are used, with the same media. C4-2B (parental cell line and drug-resistant cells derived therefrom) are cultured in RPMI-1640 with 10% FBS. MDVR cells (an Enzalutamide-resistant variety of C4-2B prostate cancer cells formed as described in Example 4 below) are cultured as indicated for the parental C4-2B cells. 22RV1 Prostate Cancer (PC) cells (ATCC® CRL-2505™, a human prostate carcinoma cell line of epithelial morphology) are cultured in RPMI-1640 with 10% FBS. […]
Example 1B: Prostate Cancer (PC) cells (22RV1, ATCC® CRL-2505™, a human prostate carcinoma cell line) are cultured according to the standard protocol, and exposed for 24-48 hours, to 0-50 μM of the respective compound (THSD, unconjugated dye). Cell viability is determined by counting viable cells and dead cells after treatment of the cells with trypan blue dye to distinguish viable from dead cells. […]

IC50 ([2]; 22RV1, exposed 24-48 hours, listed as unconjugated statin) | IC50 ([2]; Homo sapiens, 22Rv1, 22RV1, exposed 24-48 hours) | SMILES | RhoA/B staining of tumor cell membranes [1]
– | – | CC1(C)C(/C=C/C2=C(Cl)C(=C/C=C3/N(CCCCCC(=O)O)c4ccccc4C3(C)C)/CCC2)=[N+](CCCCS(=O)(=O)[O-])c2ccccc21 [DZ1] | staining persists in the membranes
> 50 µM | > 60 µM | CCC(C)(C)C(=O)O[C@H]1C[C@@H](C)C=C2C=C[C@H](C)[C@H](CC[C@@H]3C[C@@H](O)CC(=O)O3)[C@H]21 [Simvastatin] | –
